Source: US12384770B2, “Heterocyclic compound” (Takeda Pharmaceutical Company Limited, priority 2019, dated 2025)

molecular target: T1, HDAC6 enzyme (Homo sapiens, UniProt Q9UBN7); test: HDAC6 enzyme inhibitory assay (HDAC-Glo I/II Assay kit); assay type: biochemical; conditions: wells without enzyme = 100% inhibition
T1 construct: HDAC6 enzyme prepared by transducing full length HDAC6 gene into Sf-9 insect cells; GST; purchased SignalChem; host or cells: Sf-9 insect cells
T1 sequence (Q9UBN7 1-1215): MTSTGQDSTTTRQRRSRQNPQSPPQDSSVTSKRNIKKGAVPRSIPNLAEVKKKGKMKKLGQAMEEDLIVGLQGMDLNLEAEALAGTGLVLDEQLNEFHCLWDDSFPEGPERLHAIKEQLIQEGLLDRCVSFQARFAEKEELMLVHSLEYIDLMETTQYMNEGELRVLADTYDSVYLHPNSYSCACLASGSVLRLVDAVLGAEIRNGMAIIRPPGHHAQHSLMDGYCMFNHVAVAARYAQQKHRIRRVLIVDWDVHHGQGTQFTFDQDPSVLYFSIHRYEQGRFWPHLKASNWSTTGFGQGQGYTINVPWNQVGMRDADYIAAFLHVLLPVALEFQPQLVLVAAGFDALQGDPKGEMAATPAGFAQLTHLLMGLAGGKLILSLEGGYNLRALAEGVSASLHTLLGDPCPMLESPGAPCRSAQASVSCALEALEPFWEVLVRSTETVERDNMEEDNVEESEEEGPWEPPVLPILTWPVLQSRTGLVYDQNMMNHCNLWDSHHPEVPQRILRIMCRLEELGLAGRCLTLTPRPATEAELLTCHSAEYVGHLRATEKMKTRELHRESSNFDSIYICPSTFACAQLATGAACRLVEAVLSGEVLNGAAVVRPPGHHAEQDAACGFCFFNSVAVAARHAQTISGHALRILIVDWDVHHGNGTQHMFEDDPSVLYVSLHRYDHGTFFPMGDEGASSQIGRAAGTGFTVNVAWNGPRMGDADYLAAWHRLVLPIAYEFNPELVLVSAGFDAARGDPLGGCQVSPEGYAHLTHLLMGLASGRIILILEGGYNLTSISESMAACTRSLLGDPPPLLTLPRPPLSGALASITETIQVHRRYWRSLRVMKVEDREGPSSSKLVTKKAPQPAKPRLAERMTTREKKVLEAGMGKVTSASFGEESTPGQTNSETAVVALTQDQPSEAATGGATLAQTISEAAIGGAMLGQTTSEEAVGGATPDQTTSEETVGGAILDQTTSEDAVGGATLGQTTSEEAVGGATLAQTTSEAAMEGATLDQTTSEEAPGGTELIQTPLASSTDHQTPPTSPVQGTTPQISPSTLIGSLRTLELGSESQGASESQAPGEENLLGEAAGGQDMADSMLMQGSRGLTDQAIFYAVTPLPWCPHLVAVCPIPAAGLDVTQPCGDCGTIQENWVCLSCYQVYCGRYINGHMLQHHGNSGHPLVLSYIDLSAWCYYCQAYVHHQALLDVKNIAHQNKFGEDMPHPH
In short: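 Full-length GST-purified HDAC6 from Sf-9 cells preincubated with compound 60 min at room temperature in Tris-HCl pH 7.5 buffer with MgCl2, KCl, NaCl, glutathione, Tween-20. Substrate-developer reaction 20 min, luminescence read; no-enzyme wells set as 100% inhibition.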

Compound	HDAC6 inhibitory rate (%) (10 μM)
O=C1c2cc(-c3nnc(C(F)F)o3)ccc2CN1[C@H](C1CCOCC1)[C@@H](O)c1cccc(Cl)c1 (single isomer, unassigned) [Example 71, 2-[(1R*,2S*)-2-(3-chlorophenyl)-2-hydroxy-1-(oxan-4-yl)ethyl]-6-[5-(difluoromethyl)-1,3,4-oxadiazol-2-yl]-2,3-dihydro-1H-isoindol-1-one]	101

same assay, conditions: wells without enzyme = 100% inhibition, 10 µM

Compound	HDAC6 inhibitory rate (%) (10 μM)
O=C1c2cc(-c3nnc(C(F)F)o3)ccc2CN1[C@H](c1cnccn1)[C@@H](O)c1ccc(Cl)cc1 (single isomer, unassigned) [Example 97, 2-[(1R*,2S*)-2-(4-chlorophenyl)-2-hydroxy-1-(pyrazin-2-yl)ethyl]-6-[5-(difluoromethyl)-1,3,4-oxadiazol-2-yl]-2,3-dihydro-1H-isoindol-1-one]	99
O=C1c2cc(-c3nnc(C(F)F)o3)ccc2CN1[C@H](c1ncccn1)[C@@H](O)c1ccc(F)c(F)c1 (single isomer, unassigned) [Example 95, 6-[5-(difluoromethyl)-1,3,4-oxadiazol-2-yl]-2-[(1R*,2S*)-2-(3,4-difluorophenyl)-2-hydroxy-1-(pyrimidin-2-yl)ethyl]-2,3-dihydro-1H-isoindol-1-one]	99

same assay, conditions: wells without enzyme = 100% inhibition, read-out: HDAC6 inhibitory rate (%) (10 μM)

Compound	inhibition at 10 µM [%]
O=C1c2cc(-c3nnc(C(F)F)o3)ccc2CN1[C@H](c1ccc(F)cc1)[C@@H](O)c1ccccc1F (racemic) [Example 29, 6-[5-(difluoromethyl)-1,3,4-oxadiazol-2-yl]-2-[(1RS,2SR)-2-(2-fluorophenyl)-1-(4-fluorophenyl)-2-hydroxyethyl]-2,3-dihydro-1H-isoindol-1-one]	99
O=C1c2cc(-c3nnc(C(F)F)o3)ccc2CN1[C@H](C1CCOCC1)[C@@H](O)c1cc(F)cc(Cl)c1 (racemic) [Example 106, 2-[(1RS,2SR)-2-(3-chloro-5-fluorophenyl)-2-hydroxy-1-(oxan-4-yl)ethyl]-6-[5-(difluoromethyl)-1,3,4-oxadiazol-2-yl]-2,3-dihydro-1H-isoindol-1-one]	100
O=C1c2cc(-c3nnc(C(F)F)o3)ccc2CN1[C@H](c1ccccc1C(F)(F)F)[C@@H](O)c1ccccn1 (racemic) [Example 39, 6-[5-(difluoromethyl)-1,3,4-oxadiazol-2-yl]-2-{(1RS,2RS)-2-hydroxy-2-(pyridin-2-yl)-1-[2-(trifluoromethyl)phenyl]ethyl}-2,3-dihydro-1H-isoindol-1-one]	101
O=C1c2cc(-c3nnc(C(F)F)o3)ccc2CN1[C@H](c1cccnn1)[C@@H](O)c1cccc(Cl)c1 (relative stereo) [Example 121, 2-[(1R*,2S)-2-(3-chlorophenyl)-2-hydroxy-1-(pyridazin-3-yl)ethyl]-6-[5-(difluoromethyl)-1,3,4-oxadiazol-2-yl]-2,3-dihydro-1H-isoindol-1-one]	101
O=C1c2cc(-c3nnc(C(F)F)o3)ccc2CN1[C@H](c1ccc(F)cc1)[C@H](O)c1cccc(F)c1 (racemic) [Example 147, 6-[5-(difluoromethyl)-1,3,4-oxadiazol-2-yl]-2-[(1RS,2RS)-2-(3-fluorophenyl)-1-(4-fluorophenyl)-2-hydroxyethyl]-2,3-dihydro-1H-isoindol-1-one]	99
O=C1c2cc(-c3nnc(C(F)F)o3)ccc2CN1[C@H](c1ccccc1)[C@@H](O)C1CCC(F)(F)CC1 (racemic) [Example 25, 2-[(1RS,2SR)-2-(4,4-difluorocyclohexyl)-2-hydroxy-1-phenylethyl]-6-[5-(difluoromethyl)-1,3,4-oxadiazol-2-yl]-2,3-dihydro-1H-isoindol-1-one]	100
O=C1c2cc(-c3nnc(C(F)F)o3)ccc2CN1[C@H](c1cccnn1)[C@@H](O)c1ccc(Cl)cc1 (relative stereo) [Example 110, 2-[(1R*,2S)-2-(4-chlorophenyl)-2-hydroxy-1-(pyridazin-3-yl)ethyl]-6-[5-(difluoromethyl)-1,3,4-oxadiazol-2-yl]-2,3-dihydro-1H-isoindol-1-one]	100
O=C1c2cc(-c3nnc(C(F)F)o3)ccc2CN1[C@H](C1CC1)[C@H](O)c1ccc(F)cn1 [Example 150, 2-[(1R,2S)-1-cyclopropyl-2-(5-fluoropyridin-2-yl)-2-hydroxyethyl]-6-[5-(difluoromethyl)-1,3,4-oxadiazol-2-yl]-2,3-dihydro-1H-isoindol-1-one]	99
O=C1c2cc(-c3nnc(C(F)F)o3)ccc2CN1[C@H](C1CCOCC1)[C@@H](O)c1ccc(Cl)cc1 (single isomer, unassigned) [Example 83, 2-[(1R*,2S*)-2-(4-chlorophenyl)-2-hydroxy-1-(oxan-4-yl)ethyl]-6-[5-(difluoromethyl)-1,3,4-oxadiazol-2-yl]-2,3-dihydro-1H-isoindol-1-one]	101
O=C1c2cc(-c3nnc(C(F)F)o3)ccc2CN1[C@H](c1ccc(F)cc1)[C@@H](O)c1cccc(F)c1 (racemic) [Example 16, 6-[5-(difluoromethyl)-1,3,4-oxadiazol-2-yl]-2-[(1RS,2SR)-2-(3-fluorophenyl)-1-(4-fluorophenyl)-2-hydroxyethyl]-2,3-dihydro-1H-isoindol-1-one]	99
O=C1c2cc(-c3nnc(C(F)F)o3)ccc2CN1[C@H](c1ccc(F)cn1)[C@@H](O)c1cccc(F)n1 (single isomer, unassigned) [Example 66, 6-[5-(difluoromethyl)-1,3,4-oxadiazol-2-yl]-2-[(1R*,2R*)-1-(5-fluoropyridin-2-yl)-2-(6-fluoropyridin-2-yl)-2-hydroxyethyl]-2,3-dihydro-1H-isoindol-1-one]	100
O=C1c2cc(-c3nnc(C(F)F)o3)ccc2CN1[C@H](c1cccc(C(F)(F)F)c1)[C@@H](O)c1ccccn1 (racemic) [Example 24, 6-[5-(difluoromethyl)-1,3,4-oxadiazol-2-yl]-2-{(1RS,2RS)-2-hydroxy-2-(pyridin-2-yl)-1-[3-(trifluoromethyl)phenyl]ethyl}-2,3-dihydro-1H-isoindol-1-one]	99
O=C1c2cc(-c3nnc(C(F)F)o3)ccc2CN1[C@H](c1cnccn1)[C@@H](O)c1ccc(Cl)cc1 (single isomer, unassigned) [Example 96, 2-[(1R*,2S*)-2-(4-chlorophenyl)-2-hydroxy-1-(pyrazin-2-yl)ethyl]-6-[5-(difluoromethyl)-1,3,4-oxadiazol-2-yl]-2,3-dihydro-1H-isoindol-1-one]	100
O=C1c2cc(-c3nnc(C(F)F)o3)ccc2CN1[C@H](c1ccc(F)cc1)[C@@H](O)c1ccccc1 (single isomer, unassigned) [Example 45, 6-[5-(difluoromethyl)-1,3,4-oxadiazol-2-yl]-2-[(1R*,2S*)-1-(4-fluorophenyl)-2-hydroxy-2-phenylethyl]-2,3-dihydro-1H-isoindol-1-one]	100
O=C1c2cc(-c3nnc(C(F)F)o3)ccc2CN1[C@H](c1ncccn1)[C@@H](O)c1ccc(F)cc1 (racemic) [Example 134, 6-[5-(difluoromethyl)-1,3,4-oxadiazol-2-yl]-2-[(1RS,2SR)-2-(4-fluorophenyl)-2-hydroxy-1-(pyrimidin-2-yl)ethyl]-2,3-dihydro-1H-isoindol-1-one]	101
Cn1cc([C@H]([C@@H](O)c2ccccc2)N2Cc3ccc(-c4nnc(C(F)F)o4)cc3C2=O)cn1 (racemic) [Example 42, 6-[5-(difluoromethyl)-1,3,4-oxadiazol-2-yl]-2-[(1RS,2SR)-2-hydroxy-1-(1-methyl-1H-pyrazol-4-yl)-2-phenylethyl]-2,3-dihydro-1H-isoindol-1-one]	100
O=C1c2cc(-c3nnc(C(F)F)o3)ccc2CN1[C@H](c1ccc(F)cc1)[C@@H](O)c1ccc(C(F)(F)F)nc1 (single isomer, unassigned) [Example 54, 6-[5-(difluoromethyl)-1,3,4-oxadiazol-2-yl]-2-{(1R*,2S*)-1-(4-fluorophenyl)-2-hydroxy-2-[6-(trifluoromethyl)pyridin-3-yl]ethyl}-2,3-dihydro-1H-isoindol-1-one]	100
